Patent publication US20120082623A1, “SHH Regulation and Methods Thereof” (priority 2009, published 2012)
Entries after “also recorded” stand apart in the source; their conditions may differ.

Assays:
SVZ proliferation = system: SVZ proliferation; set-up: reduction in SVZ proliferation overall (PCNA) / reduction in proliferation in the C cell compartment (PCNA): concentration or dose not given beside the values; settings: cited from earlier work; for reduction in SVZ proliferation overall (PCNA) / reduction in proliferation in the C cell compartment (PCNA): systemic MPTP or unilateral 6-OHDA into the nigro-striatal pathway
[1] = system: medial forebrain bundle (mFB); assay: Unilateral 6-OHDA injection into the medial forebrain bundle; turning bias and gene expression; assay type: in vivo, mouse; settings: for Shh transcription in the vMB: wt and heterozygous GDNF mutant mice
[2] = system: Shh-nLZ C/C; Dat-Cre mutant mice; assay: Kinematic analysis of spontaneous locomotion (open field) after L-Dopa or THP; assay type: in vivo, mouse; settings: phase III mutant animals
Experimental: In particular, Bradykinesia is observed in PD. Bradykinesia is the slowed ability to start and continue movements, and impaired ability to adjust the body's position. […] There were no significant differences in the maximal speed that control and mutant mice can travel at (FIG. 40E). The relative time each animals spends at different speeds during acceleration and deceleration in individual locomotion bouts was analyzed. The numbers of “surges”, that are the reversals from acceleration to deceleration and back within a single locomotion bout, were quantitated. The “speed bin” analysis and quantitation of surges type is schematized in FIG. 40F.
Mesostriatal computations take part in the sequencing of locomotor activity and in the termination of ongoing actions (Jin and Costa, 2010; Ding et al., 2010). These processes can be partially assessed by analysis of the kinematic complexity of individual bouts of locomotion in freely ambulating mice (Benjamini et al. 2011; see also Other Results and Discussion). Quantifying the number of alternations from acceleration to deceleration and back in individual bouts of locomotion of similar duration and overall amplitude (FIG. 63G; see also Other Results and Discussion), a 100% increase in locomotive complexity of Shh-nLZ^C/C; Dat-Cre mutants in phase II but a 40% decrease in complexity in phase III compared to control littermates was observed (FIG. 48F). How much time animals spend traveling at different velocities during individual bouts of locomotion of similar length and amplitude was quantified next (see Other Results and Discussion). In phase II mice spend most time locomoting at initial and at top speeds with no discernable differences between Shh-nLZ; Dat-Cre mutants and control littermates (FIG. 64A-B). In phase III, however, Shh-nLZ^C/C; Dat-Cre animals spend 50% more time at low velocities and 80% less time at submaximal speed levels before reaching maximal velocity (FIG. 48K and FIG. 64C). Shh-nLZ^C/C; Dat-Cre animals also spend more time at sub-maximal speed levels after the animal reached peak velocities in a given bout compared to controls (FIG. 64D). […]
Spontaneous motor activity was measured in an open field arena using automatic tracking at 6 Hz by an EthoVision 3.1 system (Noldus Information Technology, Leesburg, Va.). […]
The open field arena was a polycarbonate cage 30×60×25 cm placed in a sound proof chamber. Locomotion of each mouse was recorded and tracked automatically for 10 minutes after habituation. Motor activity was measured as total distance traveled and turning bias was calculated as the net turning angle divided by distance (degrees/cm). Turning bias was calculated by subtracting the sum of ipsi- to contra-lateral movements and is independent of displacement (Spink et al., 2001).

[3] = system: Shh-nLZ C/C; Dat-Cre mutant mice; assay: Gait dynamics on treadmill (DigiGait) after acute L-Dopa or THP in mice with Shh ablation from DA neurons; assay type: in vivo, mouse; settings: for increased absolute paw angle / reduced brake time / Brake-Stride ratio: 12 month old mutant animals; for reduced brake time / Brake-Stride ratio: THP 3 mg/kg IP, 30 minutes prior
Source text: Given the involvement of the basal ganglia in the production of gait patterns, gait dynamics by ventral plane videography of mice walking on a translucent treadmill was investigated (Digigait system, Mouse specifics, Inc.), from which comparative temporal, spatial and force indices of gait were derived (Hampton et al., Physiol Behav. 2004 Sep. 15; 82(2-3):381-9; Amende et al., J Neuroeng Rehabil. 2005 Jul. 25; 2:20) of experimental and control animals from 3 to 16 months.
Either drug or vehicle control 30 minutes prior to the analysis of gait dynamics was injected in 12 month old animals. […] (FIG. 39D). […] (FIG. 39B). […] (FIG. 40C).
Gait dynamics by ventral plane videography of mice walking on a translucent treadmill (Digigait system, Mouse specifics, Inc.) were investigated, from which comparative temporal, spatial and force indices of gait were derived (Hampton et al., 2010) of Shh-nLZ^C/C; Dat-Cre—and control animals from 3 to 16 months of age (Table 1). Since altered posture can confound comparative gait analysis based on absolute measures, further analysis of locomotion on the tread mill was focused on gait length variability and relative indices of gait dynamics (relative time allotted to Swing, Brake, Propel and Stance phases) and foot angle. In Shh-nLZ^C/C; Dat-Cre mutants, gait length coefficient of variability was 30% increased at 10 months of age (FIG. 48C).
Many of the locomotion disturbances observed in Shh-nLZ^C/C; Dat-Cre were reminiscent of the functional hall marks of Parkinson's spectrum diseases which are characterized by a general impoverishment of locomotion, reduced fluidity of movement, difficulties in initiating and terminating locomotion, and increased stride length variability (Hausdorff et. al, 1998). Whether dopamine substitution by L-Dopa and the muscarinic antagonist trihexiphenidyl (THP), drugs of proven efficacy in the management of symptoms of PD related diseases, will modify acutely the locomotion deficits of Shh-nLZ^C/C; Dat-Cre mice, was tested.
Spontaneous motor activity was measured in an open field arena using automatic tracking at 6 Hz by an EthoVision 3.1 system (Noldus Information Technology, Leesburg, Va.). Derivation of acceleration and deceleration profiles and indices for turning bias and locomotion complexity is described below. Analysis of gait parameters by forced locomotion was performed by ventral plane videography on a translucent tread mill as described (Digigait, Inc.; Hampton et al., 2010).

[4] = system: Th expressing dopaminergic neurons in the substantia nigra pars compacta; assay: MPTP paradigm with and without cyclopamine; stereological quantification of Th+ cells
MPTP-lesioned mice = settings: oral administration; cited from earlier work
Shh pathway = assay: Cyclopamine injection into soleus/calf muscle; GDNF and CNTF expression by qtPCR; assay type: in vivo, mouse; settings: for dose dependence of neurotrophic factor up-regulation: soleus of endstage G93A SOD animals, 0.5, 1, or 2 μg
[5] = unilateral striatal deafferentation (Winner et al. 2006)
[6] = single systemic dose 1 hour prior to brain harvest
[7] = unilateral injection into the soleus of 125 day old G93A SOD transgenic animals

## NCCc1cc(O)c(O)cc1O [6-OHDA, 6-hydroxy-dopamine]
SVZ proliferation
  reduction in SVZ proliferation overall (PCNA): 40%
  reduction in proliferation in the C cell compartment (PCNA): 50%
SVZ proliferation; [5]
  increase in the production of newly born Pax6+, TH+ periglomerular DA neurons in the olfactory bulb ipsilateral to the lesion: threefold
  reduction in proliferation within the SVZ: 40%
[1]
  GDNF and ChAT transcription in the striatum: ipsi-lateral up-regulation of GDNF and ChAT transcription in the striatum
  expression of Th in the vMB: not affected
  turning bias: contra lateral turning bias
  Shh transcription in the vMB: up-regulation of Shh transcription in the ipsilateral ventral midbrain
[1]; listed as 6 OH-DA
  Shh transcription in the vMB: ipsi-lateral up-regulation of Shh transcription in the vMB
[1]; wt animals
  GDNF transcription in the striatum: No up regulation of GDNF transcription was detected

## N[C@@H](Cc1ccc(O)c(O)c1)C(=O)O [L-Dopa, Levodopa]
[2]
  deficits in the initiation of acceleration and deceleration (time at low speeds): partially normalized; also recorded: normalize the deficit during locomotion initiation; also recorded: ameliorated the deficits in the initiation of acceleration and deceleration; also recorded: ameliorate the deficits at low speeds
  time spent locomoting at high / sub-maximal speeds: Neither drug effected the time spend locomoting at sub-maximal speeds; also recorded: not those observed at higher speeds; also recorded: neither drug normalized the time; also recorded: do not normalize the differences at high locomotion speeds
[3]
  increased absolute paw angle: normalized the alterations in paw angles
[3]; L-Dopa 20 mg/kg SC
  reduced brake time / Brake-Stride ratio: did not correct the reduction in brake time
[3]; L-Dopa 20 mg/kg SC, listed as L-DOPA
  reduced brake time / Brake-Stride ratio: not L-DOPA
[3]; listed as L-DOPA
  increased absolute paw angle: normalized by L-DOPA
[3]; experimental and control animals, L-Dopa 20 mg/kg SC
  Brake-Stride ratios: reduced Brake-Stride ratios in both experimental and control animals

## CN1CC=C(c2ccccc2)CC1 [MPTP, 1-methyl-4-phenyl-1,2,3,6-tetrahydropyridine]
[4]; MPTP 30 mg/kg/day for 4 days, day 33, n=5
  reduction in the numbers of Th+ cells compared to vehicle controls: 39%
SVZ proliferation
  reduction in SVZ proliferation overall (PCNA): 40%
  reduction in proliferation in the C cell compartment (PCNA): 50%

## C[C@H]1CC[C@@]2(OC1)O[C@H]1C[C@H]3[C@@H]4CC[C@@H]5C[C@@H](O)CC[C@]5(C)[C@H]4CC[C@]3(C)[C@H]1[C@@H]2C [PYM50028]
MPTP-lesioned mice
  loss of dopaminergic neurons from the substantia nigra: attenuated the loss of dopaminergic neurons from the substantia nigra
  striatal GDNF: significant elevation of striatal GDNF

## CCCN(CCC)CCc1cccc2c1CC(=O)N2 [Ropinirole]
SVZ proliferation; [6]
  mitotic activity of the SVZ (PCNA+ cells) on the lesioned side: restores the mitotic activity of the SVZ
  proliferative index on the unlesioned side: increases the proliferative index on the unlesioned side

## OC(CCN1CCCCC1)(c1ccccc1)C1CCCCC1 (stereo not drawn) [THP, Trihexyphenidyl]
[2]
  deficits in the initiation of acceleration and deceleration (time at low speeds): partially normalized; also recorded: normalize the deficit during locomotion initiation; also recorded: ameliorated the deficits in the initiation of acceleration and deceleration; also recorded: ameliorate the deficits at low speeds
  time spent locomoting at high / sub-maximal speeds: Neither drug effected the time spend locomoting at sub-maximal speeds; also recorded: not those observed at higher speeds; also recorded: neither drug normalized the time; also recorded: do not normalize the differences at high locomotion speeds
[3]
  increased absolute paw angle: not by THP
[3]; L-Dopa 20 mg/kg SC
  reduced brake time / Brake-Stride ratio: normalized by THP; also recorded: normalized Brake Stride ratios to control levels; also recorded: normalized Brake-Stride ratios to control levels

## CC1=C2C[C@H]3[C@@H](CC=C4C[C@@H](O)CC[C@@]43C)[C@@H]2CC[C@]12O[C@@H]1C[C@H](C)CN[C@H]1[C@H]2C [cyclopamine]
[4]; MPTP plus cyclopamine 50 mg/kg/day by osmotic micropump, n=1
  reduction in Th+ cells in the ventral midbrain compared to control animals: 21%
[4]; MPTP plus cyclopamine 50 mg/kg/day, n=1
  effect on MPTP induced neurodegeneration: statistically significant reduction in neurodegeneration
Shh pathway; injection into calf muscles of control animals
  up regulation of GDNF expression in the muscle: 20 fold
Shh pathway; injection into limb muscle of wild type (wt) and G93A SOD1 mice
  effect on GDNF expression in adult muscles: up regulation of GDNF expression
Shh pathway; injection into the calf muscles of end stage G93A SOD mice
  up-regulation of CNTF: 20 fold
Shh pathway; right soleus of 125 day old G93A SOD transgenic animals, 1 mg of Cyclopamine, 30 h post injection
  maximal up regulation of GDNF, fold change in gene expression over control side: 27 fold
Shh pathway; right soleus of 125 day old G93A SOD transgenic animals, 2 mg of cyclopamine, 30 h post injection
  maximal upregulation of CNTF, fold change in gene expression over control side: 20 fold
Shh pathway
  dose dependence of neurotrophic factor up-regulation: dose dependent up-regulation of neurotrophic factor expression
Shh pathway; listed as Cyclopamine
  dose dependence of neurotrophic factor up-regulation: dose dependent up-regulation of GDNF and CNTF
Shh pathway; [7]
  increase in CNTF expression over the saline injected contra lateral control soleus: 8 fold
  increase in GDNF expression over the saline injected contra lateral control soleus: 12 fold
